Data: the supplement of paper PMC9663587

Columns and labels:
THZ1 = compound: CN(C)C/C=C/C(=O)Nc1ccc(C(=O)Nc2cccc(Nc3ncc(Cl)c(-c4c[nH]c5ccccc45)n3)c2)cc1 [THZ1]; test: GR value, 72 h; higher = faster growth (1 = untreated, <0 = killing);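 also: breast cancer and non-malignant breast epithelial lines, nine half-log doses, viable cells counted by Hoechst and LIVE/DEAD dye imaging versus time-zero plates and DMSO controls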
BSJ-03-123 = compound: CC(=O)c1c(C)c2cnc(Nc3ccc(N4CCN(CCOCCOCCOCCNC(=O)COc5cccc6c5C(=O)N(C5CCC(=O)NC5=O)C6=O)CC4)cn3)nc2n(C2CCCC2)c1=O [BSJ-03-123]; test: as above
[1] = compound: CCN1CCN(Cc2ccc(Nc3ncc(F)c(-c4cc(F)c5nc(C)n(C(C)C)c5c4)n3)nc2)CC1; test: as above
LEE011/Ribociclib [2] = compound: T1, CN(C)C(=O)c1cc2cnc(Nc3ccc(N4CCNCC4)cn3)nc2n1C1CCCC1 [LEE011/Ribociclib]; test: as above
[3] = compound: CC(=O)c1c(C)c2cnc(Nc3ccc(N4CCNCC4)cn3)nc2n(C2CCCC2)c1=O; test: as above
Neratinib/HKI272 = compound: CCOc1cc2ncc(C#N)c(Nc3ccc(OCc4ccccn4)c(Cl)c3)c2cc1NC(=O)/C=C/CN(C)C [Neratinib/HKI272]; test: as above
Flavopiridol [4] = compound: T2, CN1CC[C@H](c2c(O)cc(O)c3c(=O)cc(-c4ccccc4Cl)oc23)[C@H](O)C1 [Flavopiridol]; test: as above
[5] = compound: CCc1cnn2c(NCc3ccc[n+]([O-])c3)cc(N3CCCC[C@H]3CCO)nc12; test: as above
[6] = compound: CCN1CCN(Cc2ccc(Nc3ncc(F)c(-c4cc(F)c5nc(C)n(C(C)C)c5c4)n3)nc2)CC1; test: increase in dead-cell fraction, 72 h; higher = more death;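 also: breast cancer cell lines in 384-well plates, stained with Hoechst plus LIVE/DEAD far red dye and imaged, cells above an LDR intensity threshold counted dead, Hoechst-negative corpses included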
LEE011/Ribociclib [7] = compound: T1, LEE011/Ribociclib; test: as above
[8] = compound: CC(=O)c1c(C)c2cnc(Nc3ccc(N4CCNCC4)cn3)nc2n(C2CCCC2)c1=O; test: as above
Flavopiridol [9] = compound: T2, Flavopiridol; test: as above

**Q.** Which results are given for HCC1187?
**A.** GR value (THZ1; 0.0001 µM): 0.932 GR; GR value (THZ1; 0.0003162 µM): 1.51 GR; GR value (THZ1; 0.001 µM): 0.963 GR; GR value (THZ1; 0.003162 µM): 0.885 GR; GR value (THZ1; 0.01 µM): 0.645 GR; GR value (THZ1; 0.03162 µM): 0.0807 GR; GR value (THZ1; 0.1 µM): -0.731 GR; GR value (THZ1; 0.3162 µM): -0.852 GR; GR value (THZ1; 1 µM): -0.8 GR; GR value (BSJ-03-123; 0.001 µM): 0.987 GR; GR value (BSJ-03-123; 0.003162 µM): 0.865 GR; GR value (BSJ-03-123; 0.01 µM): 0.969 GR; GR value (BSJ-03-123; 0.03162 µM): 0.935 GR; GR value (BSJ-03-123; 0.1 µM): 0.956 GR; GR value (BSJ-03-123; 0.3162 µM): 0.882 GR; GR value (BSJ-03-123; 1 µM): 0.743 GR; GR value (BSJ-03-123; 3.162 µM): 0.621 GR; GR value (BSJ-03-123; 10 µM): -0.43 GR; GR value ([1]; 0.001 µM): 0.974 GR; GR value ([1]; 0.003162 µM): 0.907 GR; GR value ([1]; 0.01 µM): 0.898 GR; GR value ([1]; 0.03162 µM): 0.971 GR; GR value ([1]; 0.1 µM): 1.01 GR; GR value ([1]; 0.3162 µM): 1 GR; GR value ([1]; 1 µM): 0.849 GR; GR value ([1]; 3.162 µM): 0.69 GR; GR value ([1]; 10 µM): 0.297 GR; GR value (LEE011/Ribociclib [2]; 0.001 µM): 1.01 GR; GR value (LEE011/Ribociclib [2]; 0.003162 µM): 0.914 GR; GR value (LEE011/Ribociclib [2]; 0.01 µM): 0.863 GR; GR value (LEE011/Ribociclib [2]; 0.03162 µM): 1.02 GR; GR value (LEE011/Ribociclib [2]; 0.1 µM): 0.922 GR; GR value (LEE011/Ribociclib [2]; 0.3162 µM): 0.984 GR; GR value (LEE011/Ribociclib [2]; 1 µM): 0.933 GR; GR value (LEE011/Ribociclib [2]; 3.162 µM): 0.963 GR; GR value (LEE011/Ribociclib [2]; 10 µM): 0.933 GR; GR value ([3]; 0.0003162 µM): 0.999 GR; GR value ([3]; 0.001 µM): 1.05 GR; GR value ([3]; 0.003162 µM): 1.04 GR; GR value ([3]; 0.01 µM): 0.985 GR; GR value ([3]; 0.03162 µM): 1.05 GR; GR value ([3]; 0.1 µM): 1.09 GR; GR value ([3]; 0.3162 µM): 1.02 GR; GR value ([3]; 1 µM): 1.09 GR; GR value ([3]; 3.162 µM): 0.993 GR; GR value (Neratinib/HKI272; 0.0003162 µM): 0.994 GR; GR value (Neratinib/HKI272; 0.001 µM): 0.99 GR; GR value (Neratinib/HKI272; 0.003162 µM): 0.792 GR; GR value (Neratinib/HKI272; 0.01 µM): 1.07 GR; GR value (Neratinib/HKI272; 0.03162 µM): 0.979 GR; GR value (Neratinib/HKI272; 0.1 µM): 0.78 GR; GR value (Neratinib/HKI272; 0.3162 µM): 0.869 GR; GR value (Neratinib/HKI272; 1 µM): 0.653 GR; GR value (Neratinib/HKI272; 3.162 µM): 0.484 GR; GR value (Flavopiridol [4]; 0.0001 µM): 0.966 GR; GR value (Flavopiridol [4]; 0.0003162 µM): 0.963 GR; GR value (Flavopiridol [4]; 0.001 µM): 0.368 GR; GR value (Flavopiridol [4]; 0.003162 µM): 1 GR; GR value (Flavopiridol [4]; 0.01 µM): 0.995 GR; GR value (Flavopiridol [4]; 0.03162 µM): 0.961 GR; GR value (Flavopiridol [4]; 0.1 µM): 0.805 GR; GR value (Flavopiridol [4]; 0.3162 µM): -0.16 GR; GR value (Flavopiridol [4]; 1 µM): -0.885 GR; GR value ([5]; 0.0001 µM): 0.988 GR; GR value ([5]; 0.0003162 µM): 1 GR; GR value ([5]; 0.001 µM): 1.08 GR; GR value ([5]; 0.003162 µM): 0.985 GR; GR value ([5]; 0.01 µM): 0.471 GR; GR value ([5]; 0.03162 µM): -0.689 GR; GR value ([5]; 0.1 µM): -0.797 GR; GR value ([5]; 0.3162 µM): -0.791 GR; GR value ([5]; 1 µM): -0.761 GR; increase in dead-cell fraction ([6]; 0.001 µM): 0.0028; increase in dead-cell fraction ([6]; 0.003162 µM): 0.0037; increase in dead-cell fraction ([6]; 0.01 µM): 0.0062; increase in dead-cell fraction ([6]; 0.03162 µM): -0.0026; increase in dead-cell fraction ([6]; 0.1 µM): 0.0042; increase in dead-cell fraction ([6]; 0.3162 µM): 0.0069; increase in dead-cell fraction ([6]; 1 µM): -0.0008; increase in dead-cell fraction ([6]; 3.162 µM): 0.0149; increase in dead-cell fraction ([6]; 10 µM): 0.0352; increase in dead-cell fraction (LEE011/Ribociclib [7]; 0.001 µM): -0.0158; increase in dead-cell fraction (LEE011/Ribociclib [7]; 0.003162 µM): 0.0194; increase in dead-cell fraction (LEE011/Ribociclib [7]; 0.01 µM): 0.0202; increase in dead-cell fraction (LEE011/Ribociclib [7]; 0.03162 µM): 0.0086; increase in dead-cell fraction (LEE011/Ribociclib [7]; 0.1 µM): -0.01; increase in dead-cell fraction (LEE011/Ribociclib [7]; 0.3162 µM): 0.0057; increase in dead-cell fraction (LEE011/Ribociclib [7]; 1 µM): 0.0164; increase in dead-cell fraction (LEE011/Ribociclib [7]; 3.162 µM): 0.0124; increase in dead-cell fraction (LEE011/Ribociclib [7]; 10 µM): 0.0129; increase in dead-cell fraction ([8]; 0.0003162 µM): -0.0075; increase in dead-cell fraction ([8]; 0.001 µM): 0.0038; increase in dead-cell fraction ([8]; 0.003162 µM): 0.0189; increase in dead-cell fraction ([8]; 0.01 µM): 0.0048; increase in dead-cell fraction ([8]; 0.03162 µM): -0.0042; increase in dead-cell fraction ([8]; 0.1 µM): -0.001; increase in dead-cell fraction ([8]; 0.3162 µM): -0.0035; increase in dead-cell fraction ([8]; 1 µM): 0.0145; increase in dead-cell fraction ([8]; 3.162 µM): 0.0042; increase in dead-cell fraction (Flavopiridol [9]; 0.0001 µM): -0.0206; increase in dead-cell fraction (Flavopiridol [9]; 0.0003162 µM): 0.0043; increase in dead-cell fraction (Flavopiridol [9]; 0.001 µM): 0.0532; increase in dead-cell fraction (Flavopiridol [9]; 0.003162 µM): -0.0091; increase in dead-cell fraction (Flavopiridol [9]; 0.01 µM): 0.0053; increase in dead-cell fraction (Flavopiridol [9]; 0.03162 µM): -0.0105; increase in dead-cell fraction (Flavopiridol [9]; 0.1 µM): 0.0075; increase in dead-cell fraction (Flavopiridol [9]; 0.3162 µM): 0.15; increase in dead-cell fraction (Flavopiridol [9]; 1 µM): 0.612
